The structures appear in SMILES notation.

The subject of data set [1] is anesthesia/surgery-induced delirium-like behavior in mice. Kind of data set: Buried Food Test after anesthesia/surgery. Format: in vivo. From the text:
(§1) Mice Anesthesia and Surgery. 18-month-old C57BL/J6 female mice were adaptive in lab for 3 days. The mice were randomly assigned to the anesthesia/surgery group or control group by weight. […] Specifically, we anesthetized each of the mice using 1.4% isoflurane in 100% oxygen in a transparent acrylic chamber. Fifteen minutes after the induction, we moved the mouse out of the chamber. Isoflurane anesthesia was maintained via a cone device, and one 16-gauge needle was inserted into the cone near the nose of the mouse to monitor the concentration of isoflurane. We made a longitudinal midline incision from the xiphoid to the 0.5 centimeter proximal pubic symphysis on the skin, abdominal muscles and peritoneum. We then sutured the incision layer by layer with 5-0 Vicryl thread.
(§2) WS635 Treatment. WS635 was dissolved in corn oil with 10% DMSO, each of the mice will be injected with WS635 solution in the dose of 40 mg/kg for 0.2 ml through IP at 30 minutes before control condition or anesthesia/surgery by using 27G×½ needles. The mice in control group received 0.2 ml of corn oil with 10% DMSO.
(§3) Behaviors Tests. […] We will perform the behavior tests in groups of 3 mice and finished them within 50 minutes, which mimics the certain features of clinical evaluation of delirium in patients.
Buried Food Test. Specifically, two days before the test, we will give each mouse 2 pieces of the sweetened cereal. […]

Data set [2] shares this test system. Kind of data set: Y Maze Test after anesthesia/surgery. Format: in vivo. Particulars: 40 mg/kg IP 30 minutes before anesthesia/surgery.
Source text: as §1, §2, §3
Y Maze Test. Specifically, the Y maze, made of gray polyvinylene, will be placed in a quiet and illuminated room. […]

For data set [3] the test system is unchanged. The data set is described as follows: Open Field Test after anesthesia/surgery. Particulars: 40 mg/kg IP 30 minutes before anesthesia/surgery. Format: in vivo.
Source text: as §1, §2, §3
Open Field Test. Specifically, the mouse will be gently placed in the center of an open field chamber (40×40×40 centimeters) under dim light and will be allowed to move freely for 5 minutes. The movement parameters of the mouse will be monitored and analyzed via a video camera connected to the Any-Maze animal tracking system software (Stoelting Co., Wood Dale, IL). The total distance moved (meters), the time (seconds) spent in the center of the open field, the freezing time (seconds) and the latency (the time in seconds for the mice to reach to the location at the first attempt) to the center of the open field will be recorded and analyzed. The floor of the open field will be cleaned with 70% ethanol solution between each test. […]

Data set [4] shares this test system. Kind of data set: delirium-like behaviors overall (composite Z score) after anesthesia/surgery. Format: in vivo.
Source text: as §1, §2
Behaviors Tests. […] We will perform the behavior tests in groups of 3 mice and finished them within 50 minutes, which mimics the certain features of clinical evaluation of delirium in patients. […]

The subject of data set [5] is anesthesia/surgery-induced cognitive impairment in mice. Kind of data set: anesthesia/surgery-induced cognitive impairment in mice. Format: in vivo. The conditions noted are these: 1.4% isoflurane and abdominal surgery.
Source text: as §1
Mice Anesthesia for isoflurane-induced cognitive impairment experiment. 8 month-old C57BL/6J mice. Anesthesia: 1.4% isoflurane for two hours.
WS635 Treatment for isoflurane-induced cognitive impairment experiment. WS635 was dissolved in 10% DMSO plus corn oil. Each mouse received 26.4 mg/kg WS635 or same volume of vehicle (10% DMSO plus corn oil) at 30 minutes before the anesthesia. Then, the mice were tested in Fear Conditioning System at 48 hours and 7 days after the anesthesia.
WS635 Treatment. […]

Data set [6] relates to hepatitis C virus (HCV) replication. The conditions noted are these: in vitro; cited from earlier work.
For the next data set, the target named is cyclophilin A (Homo sapiens, UniProt P62937). Particulars: cited from earlier work.
In the next data set the test system is calcineurin. Particulars: at concentrations up to 2 μM; cited from earlier work.
A further data set relates to cytochrome P450 1A2. The conditions noted are these: metabolic studies; cited from earlier work.
In a further data set the test system is cytochrome P450 2B6. The conditions noted are these: metabolic studies; cited from earlier work.
Another data set concerns cytochrome P450 3A4. The conditions noted are these: metabolic studies; cited from earlier work.
The target in a further data set is P-glycoprotein (Homo sapiens, UniProt P08183). Particulars: cited from earlier work.
A further data set has as its system stimulated Jurkat cells. The conditions noted are these: compared with cyclosporine; cited from earlier work.
In data set [7] the test system is stimulated human peripheral blood mononuclear cells. Particulars: compared with cyclosporine; cited from earlier work.
A further data set relates to hepatitis C virus (HCV). Particulars: two-drug combination, in vitro; cited from earlier work.
For data set [8] the following is noted: cited from earlier work.

Chain of P-glycoprotein (P08183 whole entry): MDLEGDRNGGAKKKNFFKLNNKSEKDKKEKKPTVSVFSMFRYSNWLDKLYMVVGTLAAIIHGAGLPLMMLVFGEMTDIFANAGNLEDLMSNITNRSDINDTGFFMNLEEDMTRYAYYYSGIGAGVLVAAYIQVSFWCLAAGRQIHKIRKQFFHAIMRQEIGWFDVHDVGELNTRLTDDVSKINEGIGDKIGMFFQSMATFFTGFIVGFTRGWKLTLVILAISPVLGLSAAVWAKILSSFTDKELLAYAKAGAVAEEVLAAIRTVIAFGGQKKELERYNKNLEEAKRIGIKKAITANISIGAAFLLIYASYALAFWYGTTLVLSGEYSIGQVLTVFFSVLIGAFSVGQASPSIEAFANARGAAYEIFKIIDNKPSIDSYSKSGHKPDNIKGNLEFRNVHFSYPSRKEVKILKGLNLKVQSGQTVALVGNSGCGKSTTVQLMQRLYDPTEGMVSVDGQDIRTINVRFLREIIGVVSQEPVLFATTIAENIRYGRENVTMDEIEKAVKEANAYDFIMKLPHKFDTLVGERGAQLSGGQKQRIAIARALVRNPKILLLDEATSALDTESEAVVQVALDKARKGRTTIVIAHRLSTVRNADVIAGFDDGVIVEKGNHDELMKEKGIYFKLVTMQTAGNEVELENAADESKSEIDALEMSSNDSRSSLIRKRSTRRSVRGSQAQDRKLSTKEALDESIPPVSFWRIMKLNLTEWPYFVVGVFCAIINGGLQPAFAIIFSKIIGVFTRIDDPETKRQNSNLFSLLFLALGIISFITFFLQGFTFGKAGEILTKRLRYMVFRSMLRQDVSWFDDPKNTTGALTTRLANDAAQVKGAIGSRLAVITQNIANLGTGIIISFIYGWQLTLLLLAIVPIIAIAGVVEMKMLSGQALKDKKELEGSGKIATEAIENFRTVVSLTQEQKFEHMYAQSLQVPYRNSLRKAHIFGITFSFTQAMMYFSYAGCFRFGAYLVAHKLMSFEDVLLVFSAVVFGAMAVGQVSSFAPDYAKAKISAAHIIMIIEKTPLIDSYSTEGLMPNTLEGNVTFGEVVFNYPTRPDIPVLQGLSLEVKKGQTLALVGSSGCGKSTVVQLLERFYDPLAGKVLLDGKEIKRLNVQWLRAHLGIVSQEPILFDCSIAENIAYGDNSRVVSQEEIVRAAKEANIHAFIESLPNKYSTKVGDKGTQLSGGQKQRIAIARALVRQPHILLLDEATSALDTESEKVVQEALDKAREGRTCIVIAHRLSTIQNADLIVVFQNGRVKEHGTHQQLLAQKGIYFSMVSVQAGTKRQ
Chain of cyclophilin A (P62937 whole entry, species assumed): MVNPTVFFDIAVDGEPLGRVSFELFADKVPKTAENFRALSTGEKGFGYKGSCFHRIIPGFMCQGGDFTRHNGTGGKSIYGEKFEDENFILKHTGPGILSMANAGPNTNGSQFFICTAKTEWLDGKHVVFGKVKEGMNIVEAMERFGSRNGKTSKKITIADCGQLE

With `C/C=C/C[C@@H](C)[C@@H](O)[C@H]1C(=O)N[C@@H](CC)C(=O)N(C)[C@H](SCCN(C)C)C(=O)N(C)[C@@H](CC(C)(C)O)C(=O)N[C@@H](C(C)C)C(=O)N(C)[C@@H](CC(C)C)C(=O)N[C@@H](C)C(=O)N[C@H](C)C(=O)N(C)[C@@H](CC(C)C)C(=O)N(C)[C@@H](CC(C)C)C(=O)N(C)[C@@H](C(C)C)C(=O)N1C` [WS635, (3 S,6 S,9S,12R,15 S,18 S,21 S,24S,27R,30S,33 S)-27-((2-(dimethylamino)ethyl)thio)-30-ethyl-33-((1R,2R,E)-1-hydroxy-2-methylhex-4-en-1-yl)-24-(2-hydroxy-2-methy 1propyl)-6,9,18-tri isobutyl-3,21-diisopropyl-1,4,7,10,12,15,19,25,28-nonamethyl-1,4,7,10,13,16,19,22,25,28,3 1-undecaazacyclotritriacontan-2,5,8,11,14,17,20,23,26,29,32-undecaone], the “anesthesia/surgery-induced increase of latency to eat food in the buried food test” value in [1] (40 mg/kg IP 30 minutes before anesthesia/surgery, 18-month-old C57BL/J6 female mice) is recorded as “can attenuate”. Also, the “anesthesia/surgery-induced changes in Buried Food Test, dose dependence” value in data set [1] (mice) is given as “dose-dependent manner”. In addition, in data set [2], the “anesthesia/surgery-induced decrease of duration in the novel arm in the Y maze test” value is reported as “can attenuate” and the “anesthesia/surgery-induced decrease of number of entries in the novel arm in the Y maze test” value is given as “can attenuate”. In addition, in data set [3], the “anesthesia/surgery-induced change of freezing time in the open field test” value is reported as “can attenuate”, the “anesthesia/surgery-induced decrease of time spent in the center of the open field” value is listed as “can attenuate” and the “anesthesia/surgery-induced increase of latency to the center in the open field test” value was “can attenuate”. In addition, the “anesthesia/surgery-induced changes of delirium-like behaviors” value in data set [4] (40 mg/kg) is “more effectively attenuate”. Further, in [4] (FIG. 15), the “anesthesia/surgery-induced delirium-like behavior (composite Z score)” value is given as “able to attenuate”. The anesthesia/surgery-induced cognitive impairment result in data set [5] is given as “significantly attenuate”. Further, the “suppression of hepatitis C virus (HCV) replication” value in data set [6] is listed as “potent suppression”. The “inhibition of the peptidyl prolyl isomerase activity of cyclophilin A” value on cyclophilin A is “nanomolar concentrations”. For the same molecule, the “inhibition of calcineurin phosphatase activity” value in the data set on calcineurin is recorded as “no detectable inhibition”. The “induction of cytochrome P450 1A2” value with cytochrome P450 1A2 is “did not induce”. For the same molecule, in the data set with cytochrome P450 2B6, the “induction of cytochrome P450 2B6” value is on record as “did not induce”. Also, the “induction of cytochrome P450 3A4” value in the data set with cytochrome P450 3A4 is “did not induce”. Besides, on P-glycoprotein, the P-glycoprotein inhibition result was “weak inhibitor” and the P-glycoprotein substrate result was “poor substrate”. The “inhibition of interleukin-2 secretion” value with stimulated Jurkat cells is recorded as “weaker inhibitor of interleukin-2 secretion than cyclosporine”. In data set [7], the “inhibition of interleukin-2 secretion” value is “weaker inhibitor of interleukin-2 secretion than cyclosporine”. In the data set on hepatitis C virus (HCV), the “antiviral activity in combination with alpha interferon 2b” value is “synergistic antiviral activity” and the “antiviral activity in combination with ribavirin” value is reported as “additive antiviral activity”. Moreover, in data set [8] (in vivo, po), the “blood and liver concentrations of parent drug versus 50% effective dose in replicon assay” value was “exceeded the 50% effective dose”. In data set [8] (multiple animal species), the oral bioavailability result was “orally bioavailable”.

Values taken from patent US20240016884A1, “WS635 USES THEREOF IN MEDICINE” (WATERSTONE PHARMACEUTICALS (WUHAN) CO., LTD., priority 2021, published 2024).
